Measured values published in US6828344B1, “Inhibitors of phospholipase enzymes” (Genetics Institute, LLC, priority 1998, dated 2004).

Target: T1, cPLA2 (Homo sapiens, UniProt P47712)
T1 sequence (P47712 1-749): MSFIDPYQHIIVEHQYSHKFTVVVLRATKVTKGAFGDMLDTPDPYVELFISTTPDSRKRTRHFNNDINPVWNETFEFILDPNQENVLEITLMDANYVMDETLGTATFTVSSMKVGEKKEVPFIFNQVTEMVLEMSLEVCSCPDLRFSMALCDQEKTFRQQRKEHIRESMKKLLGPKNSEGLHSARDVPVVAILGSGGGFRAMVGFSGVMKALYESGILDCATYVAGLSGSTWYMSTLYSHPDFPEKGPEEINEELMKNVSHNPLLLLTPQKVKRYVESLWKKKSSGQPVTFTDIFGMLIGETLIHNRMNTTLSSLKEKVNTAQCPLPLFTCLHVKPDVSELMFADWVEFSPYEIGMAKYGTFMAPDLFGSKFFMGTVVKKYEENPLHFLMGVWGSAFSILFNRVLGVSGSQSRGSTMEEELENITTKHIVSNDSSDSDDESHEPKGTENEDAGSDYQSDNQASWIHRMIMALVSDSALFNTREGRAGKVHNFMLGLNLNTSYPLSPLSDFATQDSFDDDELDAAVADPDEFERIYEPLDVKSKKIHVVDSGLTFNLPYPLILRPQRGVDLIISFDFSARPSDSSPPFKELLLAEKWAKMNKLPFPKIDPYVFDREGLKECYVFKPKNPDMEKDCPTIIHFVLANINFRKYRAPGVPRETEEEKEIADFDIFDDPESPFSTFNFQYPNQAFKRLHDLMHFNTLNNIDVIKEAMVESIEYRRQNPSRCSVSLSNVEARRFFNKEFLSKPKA
Test: Coumarine assay (cPLA2 inhibition)
Assay type: biochemical
Settings: 7-hydroxycoumarinyl 6-heptenoate as monomeric substrate, fluorescence 360/460 nm; read-out: Coumarin IC50
Procedure: 7-hydroxycoumarinyl 6-heptenoate was used as a monomeric substrate for cPLA2 as reported previously (Huang, Z. et al., 1994, Nalytical Biochemistry 222, 110-115). Inhibitors were mixed with 200 μL assay buffer (80 mM Heped, pH 7.5, l mM EDTA) containing 60 μM 7-hydroxycoumarinyl 6-heptenoate. The reaction was initiated by adding 4 μg cPLA2 in 50 μL assay buffer. Hydrolysis of the 7-hydroxycoumarinyl 6-heptenoate ester was monitored in a fluorometer by exciting at 360 nm and monitoring emission at 460 nm. Enzyme activity is proportional to the increase in emission at 460 nm per minute. In the presence of a cPLA2 inhibitor, the rate of increase is less.

Structure (SMILES) | IC50
Cc1c(C(c2ccccc2)c2ccccc2)c2cc(Cl)ccc2n1C/C=C/COc1ccc(C(=O)O)cc1 [Example 88, 4-{[(E)-4-(3-benzhydryl-5-chloro-2-methyl-1H-indol-1-yl)-2-butenyl]oxy}benzoic acid] | 1.1 µM
Cc1c(C(c2ccccc2)c2ccccc2)c2cc(Cl)ccc2n1CCOc1ccc(C(=O)O)cc1 [Example 89, 4-[2-(3benzhydryl-5-chloro-2-methyl-1H-indol-1-yl)ethoxy]benzoic acid] | 2.5 µM
Cc1c(C(c2ccccc2)c2ccccc2)c2cc(Cl)ccc2n1CCOc1ccc(CCC(=O)O)cc1 [Example 90, 3-{4-[2-(3-benzhydryl-5-chloro-2-methyl-1H-indol-1-yl)ethoxy]phenyl}propanoic acid] | 1.2 µM
O=C(O)CCc1ccc(S(=O)(=O)CCn2cc(C(c3ccccc3)c3ccccc3)c3ccc(Cl)cc32)cc1 [Example 91, 3(4-{[2-(3-benzhydryl-6-chloro-1H-indol-1-yl)ethyl]sulfonyl}phenyl)propanoic acid] | 4 µM

Further lines, results first:

IC50 | Structure (SMILES)
9 µM | O=C(O)c1ccc(S(=O)(=O)CCn2cc(C(c3ccccc3)c3ccccc3)c3ccc(Cl)cc32)cc1 [Example 92, 4-{[2-(3-benzhydryl-6-chloro-1H-indol-1-yl)ethyl]sulfonyl}benzoic acid]
2.5 µM | Cc1c(C(c2ccccc2)c2ccccc2)c2ccccc2n1CCOc1ccc(C(=O)O)cc1 [Example 93, 4-[2-(3-benzhydryl-2-methyl-1H-indol-1-yl)ethoxy]benzoic acid]
